Values quoted from earlier work, collected in patent US6391843B1, “Chemical linker compositions” (Colgate-Palmolive Co., priority 1996, dated 2002).

Test system: insect
Conditions: hard surface cleaning composition

Methylneodecanamide [MNDA]
amount of MNDA necessary to deposit to have one day efficacy: 10 micrograms of MNDA per cm2
